Source: publication PMC7006816, “Human β-Defensin 2 Mediated Immune Modulation as Treatment for Experimental Colitis” (Frontiers in Immunology, 2020)
Where no end group is shown, it is not given here.

Columns and labels:
[1] = test system: murine BM-DC's; assay: Flow cytometry of BM-DCs (p-NF-κB, p-CREB, MHCII, CD86); format: cell-based, mouse; details: RS504393 prior to LPS + hBD2; n = 6
Procedure: (§1) BM-DC's were generated using granulocyte-macrophage colony-stimulating factor (GM-CSF) and RPMI-1640 medium (Merck) supplemented with 10% fetal calf serum (FBS; Life Technologies), 2 mM glutamine (Thermo Fisher), 100 U/ml penicillin/streptomycin (Gibco), 50 μM 2-mercaptoethanol (Roth), 1 mM sodium pyruvate (Biochrome), and 1x non-essential amino acids (Biochrome) as previously described ([28]). Shortly, 2 × 10^6 bone marrow cells flushed from the tibias and femurs of C57BL/6 mice were seeded in dishes containing 200 U/ml GM-CSF. After 3 days extra medium containing GM-CSF was added to the cells and on day 6 half of the medium was replaced by fresh […] containing GM-CSF. After 7 or 8 days slightly attached cells were harvested. Female C57BL/6JolaHsd mice were purchased from Janvier (St. Berthevin Cedex, France). Animal experiments were performed in strict accordance with the German regulations of the Society for Laboratory Animal Science (GV-SOLAS) and the European Health Law of the Federation of Laboratory Animal Science Associations (FELASA). The protocol was approved by the Regierungspräsidium Tübingen (Anzeige 09.01.2014).
2 × 10^5 murine BM-DC's were seeded in 96-well round bottom plates and treated as described above. Cells were removed from the plate using Accutase (Sigma-Aldrich) and stained for 20 min at room temperature with Zombie Aqua (Biolegend) to exclude dead cells and extracellular antibodies against CD11c-APC (N418) (Miltenyi), MHCII-FITC (M5/114.15.2) (Miltenyi) and CD86-BV421 (GL-1) (Biolegend). For p-CREB staining cells were fixed and permeabilized with Foxp3 Staining Buffer Set (eBioscience) and stained with primary antibody phosphor-CREB mAb (Ser133; clone 87G3) (Cell Signaling) for 30 min in the dark at room temperature followed by secondary goat anti-rabbit IgG-DyLight™649 (Jackson ImmunoResearch) for 15 min at 4°C. To detect intracellular p-NF-κB BM-DCs were fixed with 2% paraformaldehyde (VWR) in PBS, permeabilized with 90% freezing methanol (Applichem) and stained with the primary antibodies to phosphor-NF-κB p65 (93H1) (Cell Signaling) for 60 min in the dark at room temperature followed by goat anti-rabbit IgG-PE-Cy7 (Santa Cruz Biotechnology) for 15 min at 4°C. PBS with 0,5% bovine serum albumin (Biomol) was used for all incubations and washing steps. At least 50,000 cells were acquired using a Canto-II flow cytometer (BD […]) with DIVA software (BD Biosciences) and were further analyzed using FlowJo 10.5 software (Tree Star).

[2] = test system: murine BM-DC's; assay: Cytokine production by murine BM-DC's; format: cell-based, mouse
Procedure: as §1
2 × 10^5 murine BM-DC's or human Mo-DC's were seeded in 96-well round bottom plates. First they were pretreated with 100 ng/ml pertussis toxin (Sigma-Aldrich) or 5 μM of the CCR2 inhibitor RS 504393 (Tocris) and subsequently stimulated with 100 ng/ml LPS or 0.2 […] and 10 μg/ml or 100 μg/ml hBD2. 24 h later supernatants were collected and TNF-α [Biolegend (BM-DC's); R&D (Mo-DC's)] was analyzed according to the manufacturer's instructions. IL-10, IL-12, and IL-1β (LEGENDplex Biolegend) was as well-analyzed according to the manufacturer's instructions.

[3] = test system: SCID mice with CD4+/CD25− T cell transfer colitis; assay: T cell transfer colitis model; format: in vivo, mouse
Procedure: This study was performed by the Department of Biomedical Science at the University of Catania according to directive 86/609 EEC and approved by Novozymes science ethics committee. 8 weeks old female BALB/c and C.B-17 female SCID mice were purchased from Harlan (Italy). Colitis was induced in severe combined immunodeficiency (SCID) mice by transplantation of CD4^+/CD25^− T cells from the BALB/c mice. Briefly, lymphomonocytes isolated from spleen or lymph nodes from BALB/c mice were subjected to negative selection of CD4^+ T cells. Afterwards, CD4^+/CD25^+ cells were positively isolated by binding to the beads from the CD4^+ T cell suspensions and the CD4^+/CD25^− were collected from supernatant. […] CD4^+/CD25^− cells were intraperitoneally injected to SCID mice at a concentration of 500,000 cells in a final volume of 0.2 ml RPMI 1640. Sham treated animals (n = 6) received 0.2 ml pure RPMI 1640. Diseased mice were randomized divided into 4 groups (n = 11) and treated once daily by s.c. application of PBS (vehicle), hBD2 (0.1 and 1 mg/kg, respectively) or 0.3 mg/kg Dexamethasone (Dexa., applied intraperitoneally). Treatments started 7 days post T cell transfer and continued daily for 86 days. Animals were weighed three times a week and monitored twice a week starting from day 42 for the clinical status, summarized as DAI. The DAI included body weight loss, stool consistency, and the presence of blood at the rectum. One animal in the vehicle and one in the Dexamethasone treated groups had to be sacrificed before the end of the study. At the end of the study, animals were sacrificed and the colon was removed and carefully cleaned for further analysis. First, the colon was weighed then a section from the middle was removed and fixed for pathologic survey. The rest of the colon (5 cm) was used to quantify the activity of myeloperoxidase in the tissue.
Myeloperoxidase activity was performed on 5 cm of colon previously frozen at −80°C. Colon was homogenized in 0.5% of HETAB dissolved in 10 mM of Phosphate-Citrate Buffer (pH 7.0) to enable the release of MPO enzyme from the neutrophil granules. Homogenated samples after three freeze-thaw cycles were spun at 3,000 × g at 4°C for 30 min. Pellets were resuspended in 0.5% HETAB in 10 mM Phosphate-Citrate Buffer and spun again at 3,000 × g at 4°C for 30 min. 500 ul of supernatant were delivered into a vial along with 500 ul of TMB in Phosphate-Citrate Buffer containing Perborate Sodium. Changes in absorbance at 620 and 450 nm were read by a spectrophotometer (IRIS). Peroxidase enzyme diluted in 0.5% HETAB in 10 mM Phosphate-Citrate Buffer and H2O was used as standard. Two-fold dilutions of standard were prepared at the highest concentration of 50 pg/ml. Reagents and samples were kept refrigerated. Substrate solution was prepared just before the assay. MPO activity expresses the amount of enzyme that is able to degrade […] of peroxide/min and it is expressed as U/g tissue weight.
Sections of the colon were taken from each animal and preserved in neutral buffered formaline for subsequent histological analysis. Sections were stained using haematoxylin and eosin for further scoring.

[4] = test system: CD patients; details: clinical trial; cited from earlier work
Excerpt: Despite ongoing development of therapeutic approaches, new treatment strategies for the management of IBD are still urgently needed. Corticosteroids remain the standard therapeutic options for active CD and UC. However, their beneficial effects are associated with severe side effects such as osteoporosis, moon face, mood disturbances, glaucoma, and hypertension ([47]). In recent years, several new therapeutics targeting the molecular mechanisms of intestinal and systemic inflammation have been developed. Among these, anti-TNFα antibodies have been the most successful and most commonly used bio ...

[5] = test system: human dendritic cells and keratinocytes; details: cited from earlier work
Excerpt: Herein we report that hBD2 can be used as a systemically administered anti-inflammatory biological. hBD2 is well-tolerated, both in vitro, and in vivo. […] After su ...

[6] = test system: mice with DSS colitis; details: rectally applied; cited from earlier work
[7] = Dexamethasone 0.3 mg/kg i.p. daily, n = 10

## Cc1ccc2c(c1)C1(CCN(CCc3nc(-c4ccccc4)oc3C)CC1)OC(=O)N2 [RS504393, RS 504393, reference compound]
[1]
  Effect of pre-treatment on hBD2-mediated change of CREB phosphorylation: prevented the increase in CREB phosphorylation
  Effect of pre-treatment on hBD2-mediated change of MHCII and CD86 expression: prevented this lower expression
  Effect of pre-treatment on hBD2-mediated change of NF-κB phosphorylation: prevented the hBD2-mediated reductions in NF-κB activation
[2]; 5 μM RS504393 before LPS and hBD2
  Effect of pre-treatment on hBD2 modulation of cytokine secretion: prevented the anti-inflammatory effect of hBD2

## C[C@@H]1C[C@H]2[C@@H]3CCC4=CC(=O)C=C[C@]4(C)[C@@]3(F)[C@@H](O)C[C@]2(C)[C@@]1(O)C(=O)CO [dexamethasone, Dexamethasone, reference compound]
[3]; Dexamethasone 0.3 mg/kg i.p. daily
  Histological analysis of colon: Less signs of inflammation
[3]; Dexamethasone 0.3 mg/kg i.p. daily vs hBD2 s.c.
  Efficacy compared with hBD2: superior to hBD2 in the T cell transfer model
[3]; [7]
  Colon weight: improved DAI, stool score and colon weight significantly
  DAI: improved DAI, stool score and colon weight significantly
  Stool score: improved DAI, stool score and colon weight significantly

## Secukinumab
[4]
  Disease course in CD patients: worsened the disease

## hBD3: defensin named only as hBD3, cited for cytotoxicity in contrast to hBD2 (GIINTLQKYYCRVRGGRCAVLSCLPKEEQIGKCSTRGRKCCRRKK; ends and bridges not checked; cysteine pairing not given here; UniProt P81534 23-67, looked up)
[5]
  Cytotoxic effects: demonstrated cytotoxic effects

## pertussis toxin [reference compound]
[2]; 100 ng/ml pertussis toxin before LPS and hBD2
  Effect of pre-treatment on hBD2 modulation of TNF-α, IL-1β, IL-10, IL-12p70 secretion: prevented the observed immunomodulatory capacity of hBD2

## porcine β-defensin 2 [pBD2]
[6]
  Mucosal injury and epithelial barrier in DSS colitis: protective against mucosal injury and disruption of the epithelial barrier
